In EP1178807B1, “USE OF ORG 33245 IN COMBINED INTERMITTENT HORMONE THERAPY AND CONTRACEPTION” (Akzo Nobel N.V., priority 1999, dated 2000):

Experiments:
orosomucoid = assay: Binding to orosomucoid (as described in Philibert et al.); set-up: species or system human; details: for Binding affinity to orosomucoid (relative to RU 486): relative to RU 486 (100%)
Experimental: Of several anti-progestagens the binding to orosomucoid is determined as described in Philibert et al., Antihormones in Health and Disease (M.K. Agarwal, ed.), 1991, 19, 1-17.

[1] = Anti-McPhail test for anti-progestagenic activity; assay type: in vivo; details: Minimum Active Dose (MAD)
Experimental: Anti-progestagenic activity is determined by using an anti-McPhail test as known to the person skilled in the art and described, int.al., in Kloosterboer et al., Human Reproduction (1994), Volume 9, Supplement 1, pages 47-52.

Row | Binding affinity to orosomucoid (relative to RU 486) (orosomucoid) | binding to human orosomucoid (orosomucoid; result in words, said to indicate a relatively long half life) | SMILES | minimal effective dose [1] [mg/kg]
1 | 82% |  | C=C1CCO[C@]12CC[C@H]1[C@@H]3CCC4=CC(=O)CCC4=C3[C@@H](c3ccc(SC)cc3)C[C@@]12C | > 1
2 | 13,5% |  | C=C1CCO[C@]12CC[C@H]1[C@@H]3CCC4=CC(=O)CCC4=C3[C@@H](c3ccc(C(C)=O)cc3)C[C@@]12C | 8
3 | 222% | strong binding | C=C1CCO[C@]12CC[C@H]1[C@@H]3CCC4=CC(=O)CCC4=C3[C@@H](c3ccc(N(C)C)cc3)C[C@@]12C [Org 33245, (11β,17α)-17,23-epoxy-11-[(4-dimethylamino)phenyl]-19,24-dinorchola-4,9,20-trien-3-one] | 0.5
4 | 64% |  | C=C1CCO[C@]12CC[C@H]1[C@@H]3CCC4=CC(=O)CCC4=C3[C@@H](c3ccc(OC)cc3)C[C@@]12C | 1
